Data reported in patent US7803766B2, “Gastrin compositions and formulations, and methods of use and preparation” (Warath Pharmaceuticals, Inc, priority 2002, dated 2010).
One block for each compound: values may come before it. Where a SMILES comes first, the peptide text is derived from it. [ ]: non-standard residue; d: D form. pGlu = O=C1CC[C@@H](C(=O)O)N1

Assays:
[1] = cynomolgus monkey, in vivo
[2] = test system: NOD mice with recent onset diabetes; assay: Modified and unmodified gastrin in combination with GLP-1 in preventing diabetes progression in NOD mice with recent onset diabetes; type: in vivo; details: 3 μg/kg/day gastrin equivalent with GLP-1 100 μg/kg/day i.p. daily for 14 days, compared to GLP-1 with native gastrin (Compound B)
Text: In this example, the effect of treatment by a combination of GLP-1 and unmodified gastrin and GLP-1 and modified gastrin compounds/conjugates were examined in NOD mice with recent onset diabetes, to determine whether administration of both GLP-1 and gastrin would prevent severe hyperglycemia as well as increase pancreatic insulin content in NOD mice with recent-onset diabetes. The GLP-1 used was GLP-1 which is the biologically active fragment of human/mouse GLP-1 (having residues at positions 7-36 compared to the precursor from which the fragment is processed; obtained from Bachem H6795). […]
Non-obese diabetic (NOD) female mice, ages 12-14 weeks, were monitored for development of onset of diabetes (fasting blood glucose >8.0 to 15 mmol/l), and within 48 hours after onset of symptoms, four groups of mice were each treated as follows: one group was treated with vehicle only, and the other group was administered 100 μg/kg/day of GLP-1, and the remaining groups were treated with combination of GLP-1 (100 μg/kg/day) and gastrin compound (3 μg/kg/day gastrin equivalent), each treatment administered via the intraperitoneal route daily.
Therapy was administered for 14 days. Animals were monitored weekly for fasting blood glucose (FBG) levels. FBG levels were measured at about 12 hours after food had been withdrawn, and 24 hours after the last peptide or vehicle injection. […]

[3] = in vivo; cited from earlier work

clearance from the bloodstream [1]: rapidly cleared
Compound: CC(C)C[C@H](NC(=O)[C@H](Cc1c[nH]c2ccccc12)NC(=O)CNC(=O)[C@H](Cc1ccc(O)cc1)NC(=O)[C@H](C)NC(=O)[C@H](CCC(=O)O)NC(=O)[C@H](CCC(=O)O)NC(=O)[C@H](CCC(=O)O)NC(=O)[C@H](CCC(=O)O)NC(=O)[C@H](CCC(=O)O)NC(=O)[C@H](CC(C)C)NC(=O)[C@H](Cc1c[nH]c2ccccc12)NC(=O)[C@@H]1CCCN1C(=O)CNC(=O)[C@@H]1CCC(=O)N1)C(=O)N[C@@H](CC(=O)O)C(=O)N[C@@H](Cc1ccccc1)C(N)=O [Compound B] ([pGlu]GPWLEEEEEAYGWLDF-NH2)

Compound: Compound E: N-terminal Cys, gastrin residues 2-17 of SEQ ID NO: 4, no linker (GPWLEEEEEAYGWLDF; N-terminal Cys)
reduction of blood glucose levels [2]: more effecting in reducing blood glucose levels

Compound: Gastrin-17: Native peptide hormone gastrin, 17-residue form (little gastrin or small gastrin)
circulating half-life [3]: 5 to 9 min
